From US12133523B2, “Anti-freezing composition comprising self-assembly compound” (Korea University Research and Business Foundation, priority 2019, dated 2024) come the findings set out here.

Series [1] in a line: Critical micellar concentration from emission intensity versus concentration. It counts as physicochemical.
Series [2] concerns mouse embryonic stem cells (mESCs). The series is described as follows: mESC cell viability by CCK-8 assay and crystal violet dye. It counts as cell-based. The note with it: for toxicity to mESC: 5 to 20 uM, CCK-8 and crystal violet dye; for cell viability with respect to mESC: CCK-8. The protocol: In a 60 mm cell culture dish coated with 0.1% gelatin (Sigma), mouse ES cells were cultured in a medium DMEM (Hyclone), to which 2 mM L-glutamine (Mediatech Inc.), 1% penicillin/streptomycin (Mediatech Inc.), 15% heat-inactivated fetal bovine serum (Hyclone), 20 mM HEPES-pH 7.3 (Cellgro), 0.1 mM MEM non-essential amino acid (Cellgro), 0.1 mM 2-mercaptoethanol (Sigma) and 1000 U/mL LIF (Millipore) are added, in order to prevent differentiation.
Mouse ES cells were seeded by 8×10^4 cells per well in a 96-well plate containing the above various cryopreservation solutions. After 9 hours, CCK-8 reagent was added and fluorescence intensity was measured using an ELISA Reader (TECAN).
[…] Cells were washed with 500 μL of PBS and 500 μL of 4% PFA was added thereto for 15 minutes. The fixed cells were washed twice with 500 μL of PBS and 0.5% crystal violet solution was added thereto for 30 minutes. The stained cells were washed with tap water.
A general note: Tetrazolium dyes change colour on reduction, which living cells bring about.

For series [3] the test system is unchanged. Nature of the series: Cryopreservation activity for mESC (freeze/thaw survival, differentiation). It counts as cell-based. The note with it: sample solution 10% (v/v), FBS 40%, media 50%; -80 °C then liquid nitrogen. The procedure: 250 μL of trypsinized mouse ES cells, 200 μL of FBS and 50 μL of cryopreservation solution (0.005 μM, 0.01 μM, 0.05 μM, and 0.1 μM) were frozen in a rapid freezer for 2 days, and then stored in an LN2 tank. Thawing was performed in a 37° C. constant temperature water bath. The cell frozen stock mixture was inoculated in 4.5 mL medium of 15 mL tube, and then centrifuged at 1000 rpm for 5 minutes. Cell pellets were added with 1 mL medium and inoculated in a 6-well plate.
A cell storage solution was prepared with a sample solution 10% (v/v), FBS 40% (v/v), and media 50% (v/v) according to the present invention, and frozen at −80° C. using a rapid freezer, then the cells were stored for 2 days, and further stored in a liquid nitrogen tank for 2 days or more. Then, the cells were thawed and used in the experiment. In addition, the cells were cultured by treatment with a leukemia inhibitory factor (LIF) to confirm the differentiation ability of stem cells. All the controls were cultured and differentiated under the same conditions, except that deionized water was added instead of the sample according to the present invention.

Series [4] can be described thus: Gold nanoparticle (MPA-AuNP) colorimetric freeze/thaw assay for TH and IRI activity. The procedure: Thermal hysteresis (TH) as anti-freezing activity was measured in accordance with the method described in Park, J.-I., Lee, J. H., Gwak, Y., Kim, H. J., Jin, E., & Kim, Y.-P. (2013). Frozen assembly of gold nanoparticles for rapid analysis of antifreeze protein activity. Biosensors and Bioelectronics, 41, 752-757, and ice recrystallization inhibition (IRI) activity was measured based on Mitchell, D. E., Congdon, T., Rodger, A., & Gibson, M. I. (2015). Gold Nanoparticle Aggregation as a Probe of Antifreeze (Glyco) Protein-Inspired Ice Recrystallization Inhibition and Identification of New IRI Active Macromolecules. Scientific Reports, 5(1). More specifically, when dispersing AFP in a solution in which gold nanoparticles are dispersed, and freezing the solution then thawing again, if the AFP has good conjugating force with an ice crystal surface, the dispersibility of gold nanoparticles is good to maintain an original color of the solution, whereas if it has weak conjugating force, AFP is precipitated, and when ice crystals are rapidly formed, the solution is subjected to color change.
Gold nanoparticles (Cit-AuNP) stabilized with citric acid were synthesized to prepare mercaptopropionic acid (MPA)-AuNP. 20 mL of a storage solution containing 1 mM HAuCl4·3H2O was added to 50 mL of deionized water (DI water). After the solution was stirred and heated to a boiling point, 30 mM sodium citric acid in 2 mL of deionized water was further added to the solution and heated for 20 minutes. The color of the solution changed from bright yellow to burgundy. […] An average size of MPA-capped AuNP was measured to be about 16.7 nm.
On a microwell plate, 50 μL of a solution containing 0.5 mM sample was added to 350 μL of 300 μM MPA-AuNP solution, respectively. […] To quantitatively confirm the color change before and after freezing, absorption spectra of each mixture were measured with a UH5300 spectrometer before and after freezing. The spectra were measured from 300 nm to 900 nm at a scan speed of 400 nm/min, and aggregation properties (E525/E650) of each mixture were compared. […]

The nature of series [5]: Ice recrystallization inhibition (IRI) splat assay, MLGS from DFOM images. The note with it: for IRI effect: ice recrystallized 30 minutes at -6 °C. The protocol: In order to more clearly confirm the effect of inhibiting ice crystal growth, ice recrystallization inhibition (IRI) characteristics were analyzed. Analysis of ice recrystallization was performed by reference Mitchell, D. E., Clarkson, G., Fox, D. J., Vipond, R. A., Scott, P., & Gibson, M. I. (2017). Antifreeze Protein Mimetic Metallohelices with Potent Ice Recrystallization Inhibition Activity. Journal of the American Chemical Society, 139(29), 9835-9838 and Budke, C., Heggemann, C., Koch, M., Sewald, N., & Koop, T. (2009). Ice Recrystallization Kinetics in the Presence of Synthetic Antifreeze Glycoprotein Analogues Using the Framework of LSW Theory. The Journal of Physical Chemistry B, 113(9), 2865-2873. More specifically, a 10 μL sample was dropped from a height of 1.5 m onto a surface of a cover glass precooled to −60° C. so as to form a thin film of ice. […] During recrystallization of ice, dark-field optical microscopy (DFOM) images were taken, and ten of the largest ice crystal domains were chosen and a mean value thereof was obtained to evaluate the IRI activity. A mean largest grain size (MLGS) analysis was repeated three times.

Series [6] in a line: Freezing control on food (beef frozen at -20 °C, thawed; SEM, optical microscope, TEM). The procedure: In order to determine whether Fmoc-FFT can be used as a cryoprotectant for foods, Fmoc-FFT was added to beef (FIG. 22a), then frozen at −20° C. for one day, thawed at room temperature, and then SEM images were observed (FIGS. 22b and d).
After freezing and thawing, Fmoc-FFT was added to water in order to confirm the beef tissue, frozen at −20° C., then the process of recrystallization of ice was observed under an optical microscope.
Further, in order to confirm the tissue change in more detail, the thawed tissue was rapidly frozen in liquid nitrogen, then cut while maintaining −20° C., and the internal tissue was checked. […] It was observed that, when the Fmoc-FFT was not added, the size of tissue pore was 22±8.6 μm, while it was 5±2.3 μm when adding the same.

“Also recorded” adds a separate entry of the source. Residues, ends and D or L forms follow the SMILES beside them. *: point of attachment. Fmoc = O=C(OCC1c2ccccc2-c2ccccc21)*

Consider `NC(=O)C(Cc1ccccc1)NC(=O)C(Cc1ccccc1)NC(=O)OCC1c2ccccc2-c2ccccc21` (stereo not drawn) [Fmoc-FF] (Fmoc-Phe-Phe-NH2; configuration not given here), for which, in series [1] (aqueous solution), the “critical micellar concentration (CMC)” value came to 17 µM. In series [2], the “toxicity to mESC” value is “no toxicity”. The “survival and proliferation of mESC after freezing and thawing” value in series [3] is “survival and proliferation of mESC was smoothly performed”.

Regarding “Bovine serum albumin [BSA, reference compound]”, in series [4] (MPA-AuNP + 2 μM BSA or PEG), the “aggregation of MPA-AuNP (color change) after freezing/thawing” value was “aggregation did not occur”.

For the compound `NC(=O)C(CO)NC(=O)C(Cc1ccccc1)NC(=O)C(Cc1ccccc1)NC(=O)OCC1c2ccccc2-c2ccccc21` (stereo not drawn) [Fmoc-FFS] (Fmoc-Phe-Phe-Ser-NH2; configuration not given here), in series [5], the IRI effect entry is “had the IRI effect”. Also, in series [2], the “cell viability with respect to mESC” value is listed as “significant cell viability”.

Turning to `CC(O)C(NC(=O)C(Cc1ccccc1)NC(=O)C(Cc1ccccc1)NC(=O)Cc1ccc2ccccc2c1)C(N)=O` (stereo not drawn) [Naph-FFT], in series [5], the IRI effect entry is “had IRI effects”. In addition, in series [2], the “cell viability with respect to mESC” value is “significant cell viability”.

In the case of `CC(NC(=O)C(Cc1ccccc1)NC(=O)C(Cc1ccccc1)NC(=O)OCC1c2ccccc2-c2ccccc21)C(N)=O` (stereo not drawn) [Fmoc-FFA] (Fmoc-Phe-Phe-Ala-NH2; configuration not given here), the IRI effect result in series [5] is “had the IRI effect”. The “toxicity to mESC” value in series [2] is reported as “no toxicity”. Moreover, the “survival and proliferation of mESC after freezing and thawing” value in series [3] is “survival and proliferation of mESC was smoothly performed”.

Consider `C[S+](C)[O-]` [DMSO, dimethyl sulfoxide, reference compound], for which the “toxicity to mESC” value in series [2] is “high toxicity”.

In the case of `CC(C)C(NC(=O)C(Cc1ccccc1)NC(=O)C(Cc1ccccc1)NC(=O)OCC1c2ccccc2-c2ccccc21)C(N)=O` (stereo not drawn) [Fmoc-FFV] (Fmoc-Phe-Phe-Val-NH2; configuration not given here), in series [5], the IRI effect entry is recorded as “had the IRI effect”. In series [2], the “cell viability with respect to mESC” value is “significant cell viability”.

Take `CC(O)C(NC(=O)C(Cc1ccccc1)NC(=O)C(CC1=CN=C2C=CC=CC12)NC(=O)OCC1c2ccccc2-c2ccccc21)C(N)=O` (stereo not drawn) [Fmoc-WFT]: in series [4] (50 μL of 0.5 mM sample in 350 μL of 300 μM MPA-AuNP, -65 °C 23 min), the “aggregation of gold particles after freezing/thawing (absorption peak shift 525 nm to 650 nm)” value is on record as “an aggregation phenomenon was exhibited”. Besides, the IRI effect result in series [5] was “had IRI effects”. For the same compound, the “cell viability with respect to mESC” value in series [2] is reported as “significant cell viability”.

Consider `CC(O)C(NC(=O)C(CCC(=O)O)NC(=O)C(Cc1ccccc1)NC(=O)C(CCC(=O)O)NC(=O)C(Cc1ccccc1)NC(=O)OCC1c2ccccc2-c2ccccc21)C(N)=O` (stereo not drawn) [Fmoc-FEFET] (Fmoc-FEFET-NH2; configuration not given here), for which the CMC in series [1] (aqueous solution, compared to Fmoc-FFT) turned out to be 22.8 µM. For the same compound, the solubility entry in series [1] (compared to Fmoc-FFT) is “improved”. The “toxicity to mESC” value in series [2] is “no toxicity”. Moreover, the “survival and proliferation of mESC after freezing and thawing” value in series [3] is “survival and proliferation of mESC was smoothly performed”.

Regarding `CC(O)C(NC(=O)C(Cc1ccccc1)NC(=O)C(Cc1ccccc1)NC(=O)OCC1c2ccccc2-c2ccccc21)C(N)=O` (stereo not drawn) [Fmoc-FFT] (Fmoc-Phe-Phe-Thr-NH2; configuration not given here), the “size of tissue pore” value in series [6] (thawed beef tissue refrozen in liquid nitrogen, cut at -20 °C) is 5±2.3 μm. Further, in series [6] (versus no Fmoc-FFT added, -20 °C), the “size of recrystallized ice” value is given as “significantly smaller; also recorded: remarkably smaller”. Besides, in series [5] (comparison between materials, MLGS), the “relative IRI activity” value is “highest IRI activity”. In series [5], the IRI effect result is listed as “had the IRI effect”. Besides, the “toxicity to mESC” value in series [2] was “no toxicity”. Also, the “survival and proliferation of mESC after freezing and thawing” value in series [3] was “survival and proliferation of mESC was smoothly performed”.
